According to patent US12527774B2, “Estrogen-related receptor alpha modulators” (LEAD PHARMA HOLDING B.V., priority 2019, dated 2026):

What was measured:
[1] = target: ERRα ligand binding domain (ERRα-LBD) (Homo sapiens (Human), UniProt P11474); assay: ERRα AlphaScreen Assay; type: biochemical; details: disruption of binding of ERRα-LBD protein to biotin-PGC1α-3 co-activator peptide; for IC50: read-out: mean pIC50 (converted)
Procedure, shortened: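 His-SUMO-tagged ERRα-LBD from E. coli (0.81 nM) preincubated 1 h at room temperature with compound, streptavidin donor and Ni-chelate acceptor beads (10 μg/mL each), then 2 h with 15 nM biotin-PGC1α-3 peptide (aa 202–220). Buffer: 50 mM Tris-HCl pH 7.5, 100 mM NaCl, 5 mM TCEP, 1% DMSO. Four-parameter IC50; mean pIC50 of replicate values.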

full length ERRα = full length ERRα (Homo sapiens (Human), UniProt P11474); assay: Full Length ERRα Reporter Gene Assay; type: cell-based; details: SK-BR-3 cells, ERRα-RE luciferase reporter, overnight incubation; read-out: mean pIC50 (converted)
From the text: Full Length ERRα Reporter Gene Assay
A method was established to quantitatively screen the potency of compounds with inverse agonistic activity on the nuclear receptor ERRα of the human species. The assay allows intra-cellular screening of ERRα inverse agonists in SK-BR-3 cells using an over-expression construct coding full length ERRα and a reporter construct containing an ERRα Response Element (RE) and a luciferase gene for read out. The activity is expressed in log IC50 values and can be used to determine SAR of compound families or to de-select compounds.
In this assay, reporter cells are obtained by transient co-transfection of two constructs in SK-BR-3 cells using standard transfection techniques. The first construct contains a response element of the nuclear receptor ERRα (Plasmid pLP2175, Reporter construct ERRα-RE/luc2P, cloned variant of ERRα_v2_synthRE, Switchgear Genomics, Catalog Number S900089). This sequence drives the transcription of the luciferase reporter gene in response to binding of an ERRα protein encoded by the second construct (Plasmid pLP2124: full length ERRα expression construct using pcDNA3.1/Hygro(+) as background, Invitrogen Catalog Number V87020).
The day after transfection, cells were plated into 96 well plates, test compound was added and the plates were incubated overnight. Subsequently, the firefly luciferase activity was quantified using luciferase detection reagent and luminescence readout.
Detailed Assay Description
Transfection is performed on pre-seeded SK-BR-3 cells in a T175 flask. One transfected T175 flask is sufficient for seeding 3 to 4 MW96 plates the next day, depending on the confluency of the transfected cells.
Two different media are used in this protocol for cell treatment: 1) Culture medium, i.e. McCoy's 5a with phenol red (BioWhittaker Supplier Number 12-688F), 10% FBS and 1× Penstrep.; and, 2) Assay medium, i.e. McCoy's 5a Medium phenol red free (HyClone Product Code SH30270.01) with 2% Charcoal Stripped FBS and 1× Penstrep. Compound dilutions are prepared in assay medium.
Cells are seeded at least 2 days in advance to allow the cells to adhere well to flask before transfection. Cells should be 50-80% confluent at the day of transfection.
SKBR3 cells were transfected with the transcriptional reporter construct pLP2175 and the ERRα expression construct pLP2124 (as described above).
68 μL of Lipofectamine LTX transfection reagent (Invitrogen Catalog Number 15338-100) was added dropwise to 8.9 ml Opti-MEM I Reduced Serum Medium (Gibco Catalog Number 51985-026) and incubated at room temperature for 5 to 20 minutes. 8.9 ml of this reagent mixture was added to 22 μg pLP2175+22 μg pLP2124 (ratio 1:1 and total volume 10 ml), and incubated at room temperature for 25 minutes.
10 minutes before adding the transfection mix to SKBR3 cells in a T175 flask, the culture medium was refreshed with 20 mL culture medium. Subsequently, the 10 mL DNA-Opti-MEM-Lipofectamine mixture was gently added to the cells, followed by overnight (16-24 hours) incubation at 37° C. and 5% CO2.
To harvest SKBR3 cells from a T175 flask, first the medium was removed. Subsequently, cells were washed with Phosphate Buffered Saline (PBS) (Lonza), after which the PBS was removed. To dissociate the cells, 2 ml of TrypLE Express (Invitrogen) was added to the flask, followed by incubation at 37° C. for 5 minutes. The flask was tapped until cells were detached from the bottom. Cells were collected in 8 mL of culture medium (McCoy's 5α, 10% FBS, penstrep), to achieve a single cell suspension. After cell count, cells were spun down for 5 minutes at 300 g. Next cell pellets were re-suspended to 25000 cells/80 μl assay medium (McCoy's 5a phenol red free, 2% charcoal stripped FBS, penstrep).
For compound screening, the cells were harvested (as described above). 80 μL of cell suspension (25,000 cells) was plated per well into a white, flat bottom, tissue culture treated, 96 well screening plates (Greiner). […]

ERRα ligand binding domain (ERRα-LBD), sequence (P11474 193-421): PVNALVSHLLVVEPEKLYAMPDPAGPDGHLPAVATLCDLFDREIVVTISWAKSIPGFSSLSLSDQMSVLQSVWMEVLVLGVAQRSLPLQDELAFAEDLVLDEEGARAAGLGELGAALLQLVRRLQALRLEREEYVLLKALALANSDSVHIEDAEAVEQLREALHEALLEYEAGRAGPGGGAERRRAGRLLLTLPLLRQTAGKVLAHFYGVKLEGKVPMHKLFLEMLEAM
full length ERRα, sequence (P11474 whole entry): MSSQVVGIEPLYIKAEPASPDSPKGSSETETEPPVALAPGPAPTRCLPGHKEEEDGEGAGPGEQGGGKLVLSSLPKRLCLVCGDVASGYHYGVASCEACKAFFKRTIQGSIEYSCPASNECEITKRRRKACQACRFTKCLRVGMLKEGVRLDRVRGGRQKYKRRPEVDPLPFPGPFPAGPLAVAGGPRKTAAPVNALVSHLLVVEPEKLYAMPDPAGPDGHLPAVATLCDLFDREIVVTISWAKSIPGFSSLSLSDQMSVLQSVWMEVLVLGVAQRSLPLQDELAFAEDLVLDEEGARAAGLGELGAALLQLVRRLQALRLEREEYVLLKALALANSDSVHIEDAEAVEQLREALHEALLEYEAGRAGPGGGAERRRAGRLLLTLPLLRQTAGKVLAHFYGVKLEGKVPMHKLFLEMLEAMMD

mean pIC50 [1] | IC50 (full length ERRα) [nM] | IC50 [1] [nM] | SMILES
≥ 8 | ≤ 316 |  | COc1ccc(COc2ccc(-c3cc(=O)[nH]c4n[nH]cc34)cc2OC)c(C(F)(F)F)c1 [Example 170, 4-(3-methoxy-4-{[4-methoxy-2-(trifluoromethyl)phenyl]methoxy}phenyl)-2H,6H, 7H-pyrazolo[3,4-b]pyridin-6-one]
≥ 8 | ≤ 316 |  | COc1cc(C2CC(=O)Nc3n[nH]cc32)ccc1OCc1ccc(C(F)(F)F)cc1C(F)(F)F (stereo not drawn) [Example 8, 4-(4-{[2,4-bis(trifluoromethyl)phenyl]methoxy}-3-methoxyphenyl)-2H,4H,5H,6H, 7H-pyrazolo[3,4-b]pyridin-6-one]
≥ 8 | ≤ 316 |  | COc1cc(C2CC(=O)Nc3n[nH]cc32)ccc1OCc1ccccc1OC(F)(F)F (stereo not drawn) [Example 24, 4-(3-methoxy-4-{[2-(trifluoromethoxy)phenyl]methoxy}phenyl)-2H,4H,5H,6H,7H-pyrazolo[3,4-b]pyridin-6-one]
≥ 8 | ≤ 316 |  | COc1ccc(C(F)(F)F)c(COc2ccc(-c3cc(=O)[nH]c4n[nH]cc34)cc2OC)c1 [Example 178, 4-(3-methoxy-4-{[5-methoxy-2-(trifluoromethyl)phenyl]methoxy}phenyl)-2H,6H,7H-pyrazolo[3,4-b]pyridin-6-one]
 | ≤ 316 | 100 to 1000 | COc1cc(C2CC(=O)Nc3n[nH]cc32)ccc1OCc1ccc(CC#N)cc1C(F)(F)F (stereo not drawn) [Example 147, 2-[4-(2-methoxy-4-{6-oxo-2H,4H,5H,6H, 7H-pyrazolo[3,4-b]pyridin-4-yl}phenoxymethyl)-3-(trifluoromethyl)phenyl]acetonitrile]
≥ 8 | ≤ 316 |  | COc1cc(C2CC(=O)Nc3n[nH]cc32)ccc1COc1ccc(C)cc1C(F)(F)F (single isomer, unassigned; (-)) [Example 214, (−)-4-(3-methoxy-4-{[4-methyl-2-(trifluoromethyl)phenoxy]methyl}phenyl)-2H,4H,5H,6H,7H-pyrazolo[3,4-b]pyridin-6-one]
≥ 8 | ≤ 316 |  | COc1ccc(COc2ccc(C3CC(=O)Nc4n[nH]cc43)cc2OC)c(C(F)(F)F)c1 (stereo not drawn) [Example 19, 4-(3-methoxy-4-{[4-methoxy-2-(trifluoromethyl)phenyl]methoxy}phenyl)-2H,4H,5H,6H,7H-pyrazolo[3,4-b]pyridin-6-one]
≥ 8 | ≤ 316 |  | COc1cc(C2CC(=O)Nc3n[nH]cc32)ccc1OCc1ccc(Cl)cc1C(F)(F)F (stereo not drawn) [Example 15, 4-(4-{[4-chloro-2-(trifluoromethyl)phenyl]methoxy}-3-methoxyphenyl)-2H,4H,5H,6H, 7H-pyrazolo[3,4-b]pyridin-6-one]
 | ≤ 316 | 10 to 100 | COc1cc(C2CC(=O)Nc3n[nH]cc32)ccc1OCc1ccc(CCO)cc1C(F)(F)F (single isomer, unassigned; (+)) [Example 211, (+)-4-(4-{[4-(2-hydroxyethyl)-2-(trifluoromethyl)phenyl]methoxy}-3-methoxyphenyl)-2H,4H,5H,6H,7H-pyrazolo[3,4-b]pyridin-6-one]
≥ 8 | ≤ 316 |  | COc1cc(C2CC(=O)Nc3n[nH]cc32)ccc1OCc1ccc(CC(O)CO)cc1C(F)(F)F (stereo not drawn) [Example 143, 4-(4-{[4-(2,3-dihydroxypropyl)-2-(trifluoromethyl)phenyl]methoxy}-3-methoxyphenyl)-2H,4H,5H,6H, 7H-pyrazolo[3,4-b]pyridin-6-one]
 | ≤ 316 | 10 to 100 | COc1cc(C2CC(=O)Nc3n[nH]cc32)ccc1OCc1ccc(F)cc1C(F)(F)F (stereo not drawn) [Example 9, 4-(4-{[4-fluoro-2-(trifluoromethyl)phenyl]methoxy}-3-methoxyphenyl)-2H,4H,5H,6H, 7H-pyrazolo[3,4-b]pyridin-6-one]
≥ 8 | ≤ 316 |  | COc1cc(C2CC(=O)Nc3n[nH]cc32)ccc1OCc1ccc(CCCO)cc1C(F)(F)F (stereo not drawn) [Example 149, 4-(4-{[4-(3-hydroxypropyl)-2-(trifluoromethyl)phenyl]methoxy}-3-methoxyphenyl)-2H,4H,5H,6H, 7H-pyrazolo[3,4-b]pyridin-6-one]
≥ 8 | ≤ 316 |  | COc1cc(C2CC(=O)Nc3n[nH]cc32)ccc1OCc1cc(C)ccc1C(F)(F)F (stereo not drawn) [Example 32, 4-(3-methoxy-4-{[5-methyl-2-(trifluoromethyl)phenyl]methoxy}phenyl)-2H,4H,5H,6H,7H-pyrazolo[3,4-b]pyridin-6-one]
≥ 8 | ≤ 316 |  | CCc1ccc(COc2ccc(C3CC(=O)Nc4n[nH]cc43)cc2OC)c(C(F)(F)F)c1 (stereo not drawn) [Example 144, 4-(4-{[4-ethyl-2-(trifluoromethyl)phenyl]methoxy}-3-methoxyphenyl)-2H,4H,5H,6H, 7H-pyrazolo[3,4-b]pyridin-6-one]
≥ 8 | ≤ 316 |  | COc1cc(C2CC(=O)Nc3n[nH]cc32)ccc1OCc1ccccc1C(C)(C)C (stereo not drawn) [Example 40, 4-{4-[(2-tert-butylphenyl)methoxy]-3-methoxyphenyl}-2H,4H,5H,6H,7H-pyrazolo[3,4-b]pyridin-6-one]
≥ 8 | ≤ 316 |  | COc1cc(-c2cc(=O)[nH]c3n[nH]cc23)ccc1OCc1ccc(CCO)cc1C(F)(F)F [Example 176, 4-(4-{[4-(2-hydroxyethyl)-2-(trifluoromethyl)phenyl]methoxy}-3-methoxyphenyl)-2H, 6H, 7H-pyrazolo[3,4-b]pyridin-6-one]
≥ 8 | ≤ 316 |  | COc1ccc(COc2ccc(C3CC(=O)Nc4[nH]nnc43)cc2OC)c(C(F)(F)F)c1 (stereo not drawn) [Example 91, 7-(3-methoxy-4-{[4-methoxy-2-(trifluoromethyl)phenyl]methoxy}phenyl)-3H,4H,5H,6H,7H-[1,2,3]triazolo[4,5-b]pyridin-5-one]
≥ 8 | ≤ 316 |  | O=C1CC(c2ccc(OCc3ccccc3C(F)(F)F)c(OC(F)F)c2)c2c[nH]nc2N1 (stereo not drawn) [Example 68, 4-[3-(difluoromethoxy)-4-{[2-(trifluoromethyl)phenyl]methoxy}phenyl]-2H,4H,5H,6H, 7H-pyrazolo[3,4-b]pyridin-6-one]
≥ 8 | ≤ 316 |  | COc1cc(C2CC(=O)Nc3n[nH]cc32)ccc1OCc1ccc(Br)cc1C(F)(F)F (stereo not drawn) [Example 33, 4-(4-{[4-bromo-2-(trifluoromethyl)phenyl]methoxy}-3-methoxyphenyl)-2H,4H,5H,6H,7H-pyrazolo[3,4-b]pyridin-6-one]
≥ 8 | ≤ 316 |  | COc1cc(C2CC(=O)Nc3n[nH]cc32)ccc1OCc1ccc(CCO)cc1C(F)(F)F (stereo not drawn) [Example 155, 4-(4-{[4-(2-hydroxyethyl)-2-(trifluoromethyl)phenyl]methoxy}-3-methoxyphenyl)-2H,4H,5H,6H, 7H-pyrazolo[3,4-b]pyridin-6-one]
 | ≤ 316 | 10 to 100 | COc1cc(C2CC(=O)Nc3n[nH]cc32)ccc1OCc1ccc(C=O)cc1C(F)(F)F (stereo not drawn) [Example 159, 4-[(2-methoxy-4-{6-oxo-2H,4H,5H,6H,7H-pyrazolo[3,4-b]pyridin-4-yl}phenoxy)methyl]-3-(trifluoromethyl)benzaldehyde]
